The values that follow are results of earlier work, collected in patent publication US20230124124A1, “COMPOSITIONS AND METHODS FOR MYOPIA CONTROL AND ORTHOKERATOLOGY LENSES TREATMENT” (Ocular Science, Inc., priority 2021, published 2023).

Series [1] deals with human corneal epithelial cells. The note with it: 0.01% BAK; within hours.
Series [2] relates to corneas. The note with it: one week of treatment.

As to benzalkonium chloride [BAK], the “effect on human corneal epithelial cells” value in series [1] was “immediate cell retraction, cessation of normal cytokinesis and mitotic activity, and degeneration of human corneal epithelial cells”. In series [2], the aqueous tear production entry was “significantly reduced”, the fluorescein staining entry is “increased”, the inflammatory cell infiltration entry is “increased” and the “stromal nerve fiber density (NFD)” value is given as “significantly reduced”.
